The results in this text go back to patent US20050120493A1, “Process for exchanging the anions of cationic compounds” (priority 2002, published 2005).

SMILES strings stand for the structures.

A short description of this data set: solubility in water of the dye salts before and after anion exchange. It is filed as physicochemical. Particulars: salt form of the cationic dye as given per example.
On to `Cn1cc[n+](C)c1/N=N/c1ccc(NCCCCCCNc2ccc(/N=N/c3n(C)cc[n+]3C)cc2)cc1.[Cl-].[Cl-]`, for which the water solubility is less than 0.03%. The result for `COc1ccc(Nc2ccc(/N=N/c3n(C)cc[n+]3C)cc2)cc1.[Cl-]` reads 0.35%; that for `CCN(CC)c1ccc2nc3ccc(=[N+](CC)CC)cc-3oc2c1`, “less than 0.4%”; that for `Cn1cc[n+](C)c1N=Nc1ccc(N)cc1.[Cl-]`, 3.7%.
